Source: patent US8604202B2, “Thienopyridone derivatives as AMP-activated protein kinase (AMPK) activators” (Merck Patent GmbH, priority 2008, dated 2013)

Tests used:
[1] = target: T1, AMPK protein (recombinant α1β1γ2) (Homo sapiens, UniProt Q13131+Q9Y478); assay: AMPK enzymatic activity (Delfia, AMARA peptide); format: biochemical; conditions: compound 30 μM vs AMP 30 μM; 125 μM ATP; 30 min room temperature; ratio 90% or higher = direct activator
T1 construct: made in house; host or cells: E. coli
T1 sequence (Q13131 whole entry): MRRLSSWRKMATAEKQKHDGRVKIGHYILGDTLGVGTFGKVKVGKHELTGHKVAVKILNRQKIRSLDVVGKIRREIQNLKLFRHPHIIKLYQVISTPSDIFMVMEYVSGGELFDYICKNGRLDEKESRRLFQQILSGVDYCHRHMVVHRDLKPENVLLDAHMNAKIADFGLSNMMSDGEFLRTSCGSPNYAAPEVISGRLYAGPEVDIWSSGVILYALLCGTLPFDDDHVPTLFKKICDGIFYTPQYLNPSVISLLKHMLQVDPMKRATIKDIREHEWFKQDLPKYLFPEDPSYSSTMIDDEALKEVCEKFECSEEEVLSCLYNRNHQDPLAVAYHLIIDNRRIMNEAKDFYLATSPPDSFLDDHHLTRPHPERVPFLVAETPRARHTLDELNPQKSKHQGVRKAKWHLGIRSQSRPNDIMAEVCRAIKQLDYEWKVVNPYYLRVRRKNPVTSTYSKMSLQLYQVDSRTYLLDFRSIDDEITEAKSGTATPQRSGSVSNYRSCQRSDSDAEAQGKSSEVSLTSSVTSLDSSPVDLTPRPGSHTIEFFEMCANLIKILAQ
T1 sequence (Q9Y478 whole entry): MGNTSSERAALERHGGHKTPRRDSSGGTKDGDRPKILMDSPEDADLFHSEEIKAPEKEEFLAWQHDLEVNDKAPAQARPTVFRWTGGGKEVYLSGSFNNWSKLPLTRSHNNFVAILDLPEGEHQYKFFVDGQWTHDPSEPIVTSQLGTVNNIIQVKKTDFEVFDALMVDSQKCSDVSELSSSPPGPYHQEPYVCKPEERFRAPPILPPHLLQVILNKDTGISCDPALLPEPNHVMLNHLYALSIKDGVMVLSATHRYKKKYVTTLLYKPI
T1 sequence (Q9UGJ0 whole entry partner): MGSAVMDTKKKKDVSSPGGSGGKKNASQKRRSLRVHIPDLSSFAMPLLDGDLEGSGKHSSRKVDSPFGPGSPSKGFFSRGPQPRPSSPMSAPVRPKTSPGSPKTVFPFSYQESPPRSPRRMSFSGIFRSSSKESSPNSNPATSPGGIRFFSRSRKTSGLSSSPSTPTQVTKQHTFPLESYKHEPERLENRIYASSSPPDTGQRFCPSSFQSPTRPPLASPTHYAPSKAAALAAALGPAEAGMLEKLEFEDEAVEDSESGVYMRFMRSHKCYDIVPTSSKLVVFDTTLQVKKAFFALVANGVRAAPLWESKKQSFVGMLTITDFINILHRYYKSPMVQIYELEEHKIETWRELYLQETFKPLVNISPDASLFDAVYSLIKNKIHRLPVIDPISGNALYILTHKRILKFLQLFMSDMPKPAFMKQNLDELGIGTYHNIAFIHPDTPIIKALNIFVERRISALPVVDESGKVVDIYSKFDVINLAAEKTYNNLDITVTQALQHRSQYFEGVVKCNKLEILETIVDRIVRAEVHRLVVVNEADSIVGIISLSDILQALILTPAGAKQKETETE
Description: The following biological test allows the determination of the efficacy of such compounds of formula (I) onto AMPK protein (recombinant α1β1γ2).
Human recombinant AMPK enzyme was expressed in E. Coli and was reactivated in vitro by LKB1 prior to enzyme activity determination.
AMPK enzyme activities were assayed by using A Delfia technology. AMPK enzyme activities were carried out in microtiter plates (50 mM Hepes buffer, pH 7.4 with 125 μM ATP respectively) in the presence of a synthetic peptide substrate (AMARAASAAALARRR, the “AMARA” peptide) and activators in serial dilutions. Reactions were initiated by the addition of AMPK (50-100 ng). Following mixing, the plates were incubated for 30 min at room temperature. Enzyme activity was assayed by using an anti-phosphoserine antibody to measure the quantity of phosphate incorporated into the AMARAA.
Ratio between the % of control (basal activity) of compound of formula (I) at 30 μM and the % of control (basal activity) of AMP (natural substrate) at 30 μM. Compounds of formula (I) in the table II are considered as direct activator of AMPK if the ratio is 90% or higher.

H-2 Kb cells = assay: Glucose uptake in H-2 Kb cells (in vitro cellular test); format: cell-based, mouse; conditions: differentiated H-2 Kb muscle cells, 4 hours incubation, 2-deoxy-D-[3H]glucose 10 min; for EC (glucose uptake equal or higher to insulin 170 nM): Mus musculus, read-out: activity: Concentration of compound for a glucose uptake equal or higher to glucose uptake induced by insulin (170 nM)
Description: The following cellular test allows the determination of the effect of AMPK activators such as compounds of formula (I) onto glucose uptake in a muscle cellular model.
H-2 Kb cells derived from heterozygous H-2 Kb tsA58 transgenic mouse were grown in 24-well in plates coated with matrigel and were cultured at 33° C. for 4 days under permissive conditions, as described previously by Fryer et al. (Diabetes 49 (12): 1978, 2000).
For differentiation in muscle, cells were switched to non-permissive culture conditions (37° C. in the absence of interferon-γ). After 3 days, cells were incubated for 4 hours in DMEM 1 g/l glucose culture medium containing different concentrations of the tested molecules. Then glucose uptake was measured by incubating the cells for 10 min with radiolabelled 2-deoxy-D-[1, 2 ^3H] glucose. Glucose uptake was terminated by rapidly washing the plates 2 times with ice-cold NaCl 0.9%. The cells were then solubilized in 0.1N NaOH for 30 min. Radioactivity was determined by liquid scintillation counting.
Activity table III: Concentration of compound (1) for a glucose uptake equal or higher to glucose uptake induced by insulin (170 nM)

activity: Ratio between the % of control (basal activity) of compound of formula (I) at 30 μM and the % of control (basal activity) of AMP at 30 μM [1] [%] | Compound | EC (glucose uptake equal or higher to insulin 170 nM) (H-2 Kb cells) [µM] | activity: Concentration of compound for a glucose uptake equal or higher to glucose uptake induced by insulin (170 nM) (H-2 Kb cells)
130 | O=c1[nH]c2scc(-c3ccc(-c4ccccc4)cc3)c2c(O)c1-c1ccccc1 [Compound 1, 3-biphenyl-4-yl-4-hydroxy-5-phenyl-6,7-dihydro-thieno[2,3-b]pyridin-6-one] | > 10 | 
158 | COc1ccccc1-c1ccc(-c2csc3[nH]c(=O)c(-c4ccccc4)c(O)c23)cc1 [Compound 2, 4-hydroxy-3-(2′-methoxybiphenyl-4-yl)-5-phenyl-6,7-dihydro-thieno[2,3-b]pyridin-6-one] | > 10 | 
111 | COc1ccccc1-c1ccc(-c2c(Cl)sc3[nH]c(=O)c(-c4ccccc4)c(O)c23)cc1 [Compound 3, 2-chloro-4-hydroxy-3-(2′-methoxybiphenyl-4-yl)-5-phenyl-6,7-dihydro-thieno[2,3-b]pyridin-6-one] |  | ** (concentration of compound (I) ≦10 microMolar)
126 | O=c1[nH]c2scc(-c3ccc(-c4ccccc4O)cc3)c2c(O)c1-c1ccccc1 [Compound 4, 4-hydroxy-3-(2′-hydroxybiphenyl-4-yl)-5-phenyl-6,7-dihydro-thieno[2,3-b]pyridin-6-one] | > 10 | 
191 | O=c1[nH]c2scc(-c3ccc(-c4ccccc4F)cc3)c2c(O)c1-c1ccccc1 [Compound 6, 3-(2′-fluorobiphenyl-4-yl)-4-hydroxy-5-phenyl-6,7-dihydro-thieno[2,3-b]pyridin-6-one] | > 10 | 
141 | Cc1ccccc1-c1ccc(-c2csc3[nH]c(=O)c(-c4ccccc4)c(O)c23)cc1 [Compound 7, 4-hydroxy-3-(2′-methylbiphenyl-4-yl)-5-phenyl-6,7-dihydro-thieno[2,3-b]pyridin-6-one] | > 10 | 
145 | O=c1[nH]c2scc(-c3ccc(-c4ccoc4)cc3)c2c(O)c1-c1cccnc1 [Compound 38, 4-hydroxy-3-[4-(3-furyl)phenyl]-5-pyridin-3-yl-6,7-dihydro-thieno[2,3-b]pyridin-6-one] |  | 
147 | O=c1[nH]c2scc(-c3ccc(-c4cccc(CO)c4)cc3)c2c(O)c1-c1cccnc1 [Compound 39, 4-hydroxy-3-(3′-hydroxymethylbiphenyl-4-yl)-5-pyridin-3-yl-6,7-dihydro-thieno[2,3-b]pyridin-6-one] |  | 
162 | O=c1[nH]c2scc(-c3ccc(-c4cccnc4)cc3)c2c(O)c1-c1cccnc1 [Compound 40, 4-hydroxy-5-pyridin-3-yl-3-(4-pyridin-3-ylphenyl)-6,7-dihydro-thieno[2,3-b]pyridin-6-one] |  | 
107 | COc1cc(F)ccc1-c1ccc(-c2csc3[nH]c(=O)c(-c4ccccc4)c(O)c23)cc1 [Compound 42, 3-(4′-fluoro-2′-methoxybiphenyl-4-yl)-4-hydroxy-5-phenyl-6,7-dihydro-thieno[2,3-b]pyridin-6-one] |  | 
139 | O=c1[nH]c2scc(-c3ccc(-c4ccc(O)cc4O)cc3)c2c(O)c1-c1ccccc1 [Compound 43, 4-hydroxy-3-(2′,4′-dihydroxybiphenyl-4-yl)-5-phenyl-6,7-dihydro-thieno[2,3-b]pyridin-6-one] |  | 
120 | COc1cc(-c2csc3[nH]c(=O)c(-c4ccccc4)c(O)c23)ccc1-c1ccccc1 [Compound 45, 4-hydroxy-3-(2-methoxybiphenyl-4-yl)-5-phenyl-6,7-dihydro-thieno[2,3-b]pyridin-6-one] |  | 
124 | COc1cc(-c2csc3[nH]c(=O)c(-c4ccccc4)c(O)c23)ccc1-c1ccc(C)cc1 [Compound 46, 4-hydroxy-3-(4′-methyl-2-methoxybiphenyl-4-yl)-5-phenyl-6,7-dihydro-thieno[2,3-b]pyridin-6-one] |  | 
118 | COc1cc(-c2csc3[nH]c(=O)c(-c4ccccc4)c(O)c23)ccc1-c1ccc(F)cc1 [Compound 47, 3-(4′-fluoro-2-methoxybiphenyl-4-yl)-4-hydroxy-5-phenyl-6,7-dihydro-thieno[2,3-b]pyridin-6-one] |  | 
264 | COc1cc(-c2csc3[nH]c(=O)c(-c4ccccc4)c(O)c23)ccc1-c1ccc(O)cc1 [Compound 48, 4-hydroxy-3-(4′-hydroxy-2-methoxybiphenyl-4-yl)-5-phenyl-6,7-dihydro-thieno[2,3-b]pyridin-6-one] |  | 
421 | Cc1ccc(-c2ccc(-c3csc4[nH]c(=O)c(-c5ccccc5)c(O)c34)cc2O)cc1 [Compound 50, 4-hydroxy-3-(2-hydroxy-4′-methylbiphenyl-4-yl)-5-phenyl-6,7-dihydro-thieno[2,3-b]pyridin-6-one] |  | 
384 | O=c1[nH]c2scc(-c3ccc(-c4ccc(O)cc4)c(O)c3)c2c(O)c1-c1ccccc1 [Compound 51, 4-hydroxy-3-(2,4′-hydroxybiphenyl-4-yl)-5-phenyl-6,7-dihydro-thieno[2,3-b]pyridin-6-one] |  | 
219 | COc1cc(-c2csc3[nH]c(=O)c(-c4ccccc4)c(O)c23)ccc1-c1ccc(C(=O)O)cc1 [Compound 52, 4′-(4-hydroxy-6-oxo-5-phenyl-6,7-dihydro-thieno[2,3-b]pyridin-3-yl)-2′-methoxybiphenyl-4-carboxylic acid] |  | 
376 | O=C(O)c1ccc(-c2ccc(-c3csc4[nH]c(=O)c(-c5ccccc5)c(O)c34)cc2O)cc1 [Compound 53, 2′-hydroxy-4′-(4-hydroxy-6-oxo-5-phenyl-6,7-dihydro-thieno[2,3-b]pyridin-3-yl)biphenyl-4-carboxylic acid] |  | 
160 | COc1cc(-c2csc3[nH]c(=O)c(-c4ccccc4)c(O)c23)ccc1-c1cccc(CO)c1 [Compound 55, 4-hydroxy-3-(3′-hydroxymethyl-2-methoxybiphenyl-4-yl)-5-phenyl-6,7-dihydro-thieno[2,3-b]pyridin-6-one] |  | 
143 | COc1cc(-c2csc3[nH]c(=O)c(-c4ccccc4)c(O)c23)ccc1-c1cccnc1 [Compound 56, 4-hydroxy-3-[3-methoxy-4-pyridin-3-ylphenyl]-5-phenyl-6,7-dihydro-thieno[2,3-b]pyridin-6-one] |  | 
243 | O=c1[nH]c2scc(-c3ccc(-c4ccncc4)cc3O)c2c(O)c1-c1ccccc1 [Compound 57, 4-hydroxy-3-[2-hydroxy-4-pyridin-4ylphenyl]-5-phenyl-6,7-dihydro-thieno[2,3-b]pyridin-6-one] |  | 
111 | O=c1[nH]c2scc(-c3ccc(-c4cccc(CO)c4)cc3)c2c(O)c1-c1ccccc1 [Compound 58, 4-hydroxy-3-(3′-hydroxymethylbiphenyl-4-yl)-5-phenyl-6,7-dihydro-thieno[2,3-b]pyridin-6-one] |  | 
128 | O=c1[nH]c2scc(-c3ccc(-c4ccc(CO)cc4)cc3)c2c(O)c1-c1ccccc1 [Compound 59, 4-hydroxy-3-(4′-hydroxymethylbiphenyl-4-yl)-5-phenyl-6,7-dihydro-thieno[2,3-b]pyridin-6-one] |  | 
